# Measurements reported in paper PMC7179901, “The aerobic respiratory chain of Pseudomonas aeruginosa cultured in artificial urine media: Role of NQR and terminal oxidases” (PLoS ONE, 2020).
# Assays:
# NQR = biological target: T1, NQR (Pseudomonas aeruginosa, UniProt Q9HZK7+Q9HZK9); experiment: HQNO titration of NADH-dependent oxygen consumption in isolated membranes; type: biochemical
# T1 construct: gene nqrB; native NQR complex in LB and mAUM membranes; with six-subunit complex NqrA-F
# [1] = biological target: T2, purified P. aeruginosa NQR (Pa-NQR) (Pseudomonas aeruginosa, UniProt Q9HZL1); experiment: ubiquinone reductase activity at […] nm; type: biochemical; details: 50 μM ubiquinone-1, KHE buffer pH 7.5
# T2 construct: gene nqrF; […]; DDM-solubilized, Ni-NTA (tag not described) and DEAE purified; six-subunit complex; with Na(+)-translocating NADH-quinone reductase subunit A; Na(+)-translocating NADH-quinone reductase subunit B; Na(+)-translocating NADH-quinone reductase subunit C; Na(+)-translocating NADH-quinone reductase subunit D; Na(+)-translocating NADH-quinone reductase subunit E
# T2 sequence (Q9HZL1 whole entry): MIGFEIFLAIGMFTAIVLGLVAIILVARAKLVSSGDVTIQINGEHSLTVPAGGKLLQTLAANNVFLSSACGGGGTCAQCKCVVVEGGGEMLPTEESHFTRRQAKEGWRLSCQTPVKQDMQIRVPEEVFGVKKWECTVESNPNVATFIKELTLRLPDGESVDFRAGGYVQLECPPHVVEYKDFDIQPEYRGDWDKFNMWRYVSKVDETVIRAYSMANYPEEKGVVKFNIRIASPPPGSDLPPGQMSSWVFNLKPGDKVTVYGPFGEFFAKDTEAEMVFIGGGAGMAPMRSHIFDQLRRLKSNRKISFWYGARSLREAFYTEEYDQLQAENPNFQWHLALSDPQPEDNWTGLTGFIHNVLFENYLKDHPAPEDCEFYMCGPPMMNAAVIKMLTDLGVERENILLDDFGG
# T2 sequence (Q9HZK6 whole entry partner): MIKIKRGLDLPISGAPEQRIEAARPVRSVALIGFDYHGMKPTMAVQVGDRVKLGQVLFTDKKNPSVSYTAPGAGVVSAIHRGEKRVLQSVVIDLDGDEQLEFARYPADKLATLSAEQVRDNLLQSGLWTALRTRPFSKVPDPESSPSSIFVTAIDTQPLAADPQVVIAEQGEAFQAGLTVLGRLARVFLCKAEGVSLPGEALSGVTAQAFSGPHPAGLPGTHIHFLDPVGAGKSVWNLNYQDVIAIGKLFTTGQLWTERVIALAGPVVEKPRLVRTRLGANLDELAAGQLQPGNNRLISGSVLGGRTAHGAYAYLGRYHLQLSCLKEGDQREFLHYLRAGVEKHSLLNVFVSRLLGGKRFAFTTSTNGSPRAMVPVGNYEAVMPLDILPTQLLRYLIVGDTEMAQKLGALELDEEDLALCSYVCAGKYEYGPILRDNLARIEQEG
# T2 sequence (Q9HZK7 whole entry partner): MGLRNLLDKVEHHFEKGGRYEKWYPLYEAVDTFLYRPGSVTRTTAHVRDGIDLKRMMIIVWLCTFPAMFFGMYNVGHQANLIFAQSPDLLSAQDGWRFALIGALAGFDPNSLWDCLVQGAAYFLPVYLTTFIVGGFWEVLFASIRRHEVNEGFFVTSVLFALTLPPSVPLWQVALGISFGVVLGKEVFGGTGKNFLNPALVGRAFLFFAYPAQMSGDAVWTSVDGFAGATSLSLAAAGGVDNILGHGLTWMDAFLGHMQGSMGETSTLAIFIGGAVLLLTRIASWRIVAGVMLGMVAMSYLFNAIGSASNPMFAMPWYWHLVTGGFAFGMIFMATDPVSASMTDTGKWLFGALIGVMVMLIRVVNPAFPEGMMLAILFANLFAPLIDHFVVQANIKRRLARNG
# T2 sequence (Q9HZK8 whole entry partner): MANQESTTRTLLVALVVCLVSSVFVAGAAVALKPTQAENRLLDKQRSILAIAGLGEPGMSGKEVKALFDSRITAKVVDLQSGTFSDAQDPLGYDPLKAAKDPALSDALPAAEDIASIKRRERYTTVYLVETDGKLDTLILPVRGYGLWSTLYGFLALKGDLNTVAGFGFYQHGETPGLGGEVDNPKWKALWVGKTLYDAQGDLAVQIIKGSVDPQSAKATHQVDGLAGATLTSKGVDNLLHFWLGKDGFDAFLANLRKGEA
# T2 sequence (Q9HZK9 whole entry partner): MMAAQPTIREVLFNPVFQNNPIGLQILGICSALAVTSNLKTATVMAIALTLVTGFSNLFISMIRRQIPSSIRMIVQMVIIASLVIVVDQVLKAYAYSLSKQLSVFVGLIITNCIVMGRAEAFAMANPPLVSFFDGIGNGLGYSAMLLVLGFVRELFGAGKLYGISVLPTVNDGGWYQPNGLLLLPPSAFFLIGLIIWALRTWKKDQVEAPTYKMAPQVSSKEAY
# T2 sequence (Q9HZL0 whole entry partner): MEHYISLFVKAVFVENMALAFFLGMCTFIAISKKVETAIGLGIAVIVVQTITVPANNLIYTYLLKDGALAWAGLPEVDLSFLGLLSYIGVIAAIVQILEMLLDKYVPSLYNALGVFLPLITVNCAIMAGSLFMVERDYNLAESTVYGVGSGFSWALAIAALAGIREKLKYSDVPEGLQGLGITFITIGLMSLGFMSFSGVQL
# T1 sequence (Q9HZK9 whole entry): as the sequence (Q9HZK9 whole entry partner) above
# T1 sequence (Q9HZL1 whole entry, further chain): as the sequence (Q9HZL1 whole entry) above
# T1 sequence (Q9HZK7 whole entry): as the sequence (Q9HZK7 whole entry partner) above
# T1 sequence (Q9HZK6 whole entry, further chain): as the sequence (Q9HZK6 whole entry partner) above
# T1 sequence (Q9HZL0 whole entry, further chain): as the sequence (Q9HZL0 whole entry partner) above
# T1 sequence (Q9HZK8 whole entry, further chain): as the sequence (Q9HZK8 whole entry partner) above
smiles,measurement,setting,value
CCCCCCCc1cc(O)c2ccccc2[n+]1[O-] [HQNO],Ki,NQR,2 µM
NC(=O)C1=CN([C@@H]2O[C@H](COP(=O)(O)OP(=O)(O)OC[C@H]3O[C@@H](n4cnc5c(N)ncnc54)[C@H](O)[C@@H]3O)[C@@H](O)[C@H]2O)C=CC1 [NADH],ubiquinone reductase activity at 282 nm,[1]; 250 μM NADH,purified P. aeruginosa NQR (F) using as substrates NADH (black) or deamino NADH
NC(=O)C1=CN([C@@H]2O[C@H](COP(=O)(O)OP(=O)(O)OC[C@H]3O[C@@H](n4cnc5c(=O)[nH]cnc54)[C@H](O)[C@@H]3O)[C@@H](O)[C@H]2O)C=CC1 [deamino NADH],ubiquinone reductase activity at 282 nm,[1]; 250 μM deamino NADH,purified P. aeruginosa NQR (F) using as substrates NADH (black) or deamino NADH
